In patent US20220259202A1, “1-(4-(AMINOMETHYL)BENZYL)-2-BUTYL-2H-PYRAZOLO[3,4-C]QUINOLIN-4-AMINE DERIVATIVES AND RELATED COMPOUNDS AS TOLL-LIKE RECEPTOR (TLR) 7/8 AGONISTS, AS WELL AS ANTIBODY DRUG CONJUGATES THEREOF FOR USE IN CANCER THERAPY AND DIAGNOSIS” (SUTRO BIOPHARMA, INC., priority 2019, published 2022):

Legend:
[1] = tested on: human PBMCs; test: Compound-induced immune cell activation (CD86 expression, flow cytometry); type: cell-based; conditions: monocytes, B cells, cDCs and pDCs (FIG. 1A-1D); 48 hr
Source text: This example evaluates the ability of Compound 1 to stimulate the activation of different immune cells populations (monocyte, B cell, and DCs) in human PBMCs (Peripheral blood mononuclear cells), cyno PBMCs and mouse splenocytes. Compound A, above, and resiquimod, below, were used as controls in this assay
Peripheral blood mononuclear cells (PBMCs) were isolated from fresh collected blood from two healthy human donors and two cynomolgus monkey donors using Leukosep tube and Nycoprep 1.077 buffer according to the manufacture's recommendation. Mouse splenocytes were isolated from C57/BL6 mouse spleens by macerating and straining over a 70 μm cell strainer. Isolated PBMCs or splenocytes were then frozen done using frozen medium. On the day of the assay, PBMCs or splenocytes were thawed and cultured in PBMC culture medium (RPMI supplemented with 10% heat-inactivated fetal bovine serum from Hyclone, 1% Penicillin/Streptomycin and 2 mmol/L-glutamax). 300k of PBMC or splenocytes in 50 μL of culture medium were seeded in 96-well cell culture plates. 50 μL of the test articles (formulated at 2× of starting concentration, 1:4 serial dilution) were then added into the well. The cell mixtures were co-cultured in the presence of test articles and 10 pg/mL LPS-RS for 48 hr and collected by Accutase. […] Cells were washed, fixed with 2% PFA overnight, and read on the Attune NxT cytometer (Thermo Fisher). […]

[2] = molecular target: T1, human TLR7 (Homo sapiens, UniProt Q9NYK1); test: HEK293 SEAP reporter assay, human TLR7 (Biological Example 1); type: cell-based; conditions: HEK293-humanTLR7 reporter cells, 4 hrs; read-out: hTLR7 EC50
T1 construct: host or cells: HEK293
T1 sequence (Q9NYK1 27-1049): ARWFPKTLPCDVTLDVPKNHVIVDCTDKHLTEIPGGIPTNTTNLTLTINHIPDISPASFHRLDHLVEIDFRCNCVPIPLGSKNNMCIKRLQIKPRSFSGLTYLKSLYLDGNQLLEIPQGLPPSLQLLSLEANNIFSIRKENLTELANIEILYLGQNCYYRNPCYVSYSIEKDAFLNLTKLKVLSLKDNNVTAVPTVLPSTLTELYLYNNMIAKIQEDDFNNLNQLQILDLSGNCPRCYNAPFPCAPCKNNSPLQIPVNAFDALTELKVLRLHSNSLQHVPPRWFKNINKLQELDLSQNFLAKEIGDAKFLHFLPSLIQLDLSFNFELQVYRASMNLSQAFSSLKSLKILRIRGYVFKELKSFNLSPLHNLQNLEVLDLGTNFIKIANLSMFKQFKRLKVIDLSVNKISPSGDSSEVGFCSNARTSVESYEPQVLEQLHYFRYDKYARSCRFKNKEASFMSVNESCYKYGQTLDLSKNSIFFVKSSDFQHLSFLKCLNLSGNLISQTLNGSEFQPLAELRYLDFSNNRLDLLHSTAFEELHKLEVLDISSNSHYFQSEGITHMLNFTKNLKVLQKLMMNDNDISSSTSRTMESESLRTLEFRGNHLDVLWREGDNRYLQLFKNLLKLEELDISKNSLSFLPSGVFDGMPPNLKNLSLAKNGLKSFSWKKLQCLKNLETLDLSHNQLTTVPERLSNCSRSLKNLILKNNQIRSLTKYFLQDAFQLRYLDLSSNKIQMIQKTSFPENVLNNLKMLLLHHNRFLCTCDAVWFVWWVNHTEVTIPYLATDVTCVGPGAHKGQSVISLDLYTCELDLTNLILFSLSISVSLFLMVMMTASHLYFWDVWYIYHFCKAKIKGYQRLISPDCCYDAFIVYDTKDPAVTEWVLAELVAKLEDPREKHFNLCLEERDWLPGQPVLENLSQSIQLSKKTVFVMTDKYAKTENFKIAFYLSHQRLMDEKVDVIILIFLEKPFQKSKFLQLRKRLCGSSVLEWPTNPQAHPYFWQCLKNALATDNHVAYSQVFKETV
Protocol: In this example, the activity of the TLR7 agonists to activate human TLR7, hTLR7 (or human TLR8, hTLR8, or mouse TLR7, mTLR7) pathway was evaluated on HEK293 reporter cells transfected with human TLR7 (or mouse TLR7 or human TLR8) and an inducible SEAP (secreted embryonic alkaline phosphatase) reporter gene. The SEAP reporter gene is placed under the control of the IFN-β minimal promoter fused to five NF-κB and AP-1-binding sites. Stimulation with a TLR7 agonist activates NF-KB and AP-1 which induces the production of SEAP. Levels of SEAP was determined with HEK-Blue Detection medium.
HEK293-humanTLR7, HEK293-mouseTLR7 and HEK293-humanTLR8 reporter cell lines were purchased from Invivogen and cell lines were maintained in manufacture recommended culture medium with required supplemental antibiotics. On the day of assay, the cells were harvested with Accutase and counted by the Vi-CELL Cell Viability Analyzers. Cells were re-suspended in HEK blue detection medium and a total of 10000 cells were seeded in each well of a 384-well flat bottom plate. Serial dilutions of TLR7 agonists free drugs (1:3 serial dilution starting from 5 μM) was added into treatment wells. Assay plates were cultured at 37° C. in a CO2 incubator for […]. HEK-Blue™ Detection medium changes to a purple/blue color in the presence of secreted SEAP, which can be detected by spectrophotometry at 620-655 nm. […]

EC50 [2]: 46.7 nM
SMILES: CCCCn1nc2c(N)nc3ccccc3c2c1Cc1ccc(CN)cc1 [Compound 1, 1-(4-(aminomethyl)benzyl)-2-butyl-2H-pyrazolo[3,4-c]quinolin-4-amine]
activation of immune cells in human PBMCs [1]: very potent in activating
